Test results reported in PMC8895403, “A Strategy to Select Macrocyclic Peptides Featuring Asymmetric Molecular Scaffolds as Cyclization Units by Phage Display” (Journal of the American Chemical Society, 2022).
Numbered stars: 1 amine (or outer) side, 2 acyl side, 3 side chain; on linkers, the order of the positions; unused ones are H or OH. Bridge positions count the residues as written; N and C are the ends. Square brackets hold non-standard residues; d marks the D form. Peptide text beside a SMILES is read from it. X1 = COc1ccc(CN([C@@H](C)C(=O)[*:2])[*:1])cc1N[*:3]; X2 = O=C(C[*:2])[*:1]

Tests used:
streptavidin = streptavidin (Streptomyces avidinii, UniProt P22629); assay: HABA competition binding assay (competitive ligand-binding analysis); conditions: cyclic peptide; read-out: Kd,app
Text: To pinpoint the binding mode of SAV_1–3 variants, we first synthesized the linear precursors and then prepared their modified and cyclized versions (Figure S13). […] To further elucidate the role of the free aldehyde for binding, we additionally prepared SAV_1–3 peptides that were modified with cyclization units bearing an alcohol moiety instead (Figures 6b and S13). […]
In vitro affinity measurements: To determine the affinity of the selected peptides for Streptavidin, a competitive binding experiment was performed similarly to previously described literature procedures.[7] In brief, for the competitive binding experiment, increasing amounts of peptide (final concentration 0.01 – 500 μM in 12.5% ACN + 0.1% TFA in PBS phosphate buffered saline (PBS, 137 mM NaCl, 2.7 mM KCl, 10 mM Na2HPO4, 2 mM […]
Streptavidin monomer (final concentration 1.5 mM/ 40 µM (SAV_1), 33 µM (SAV_2), 32 µM (SAV_3)). The reactions were allowed to reach equilibrium at room temperature (60 min.) and […]
IC50 values were obtained by fitting the average of three measurements to equation 1:
A = A + A500nm,max − A500nm,min (1) […]
where, A500nm is the measured absorbance at unbound peptide concentration, [L], and H is the Hill coefficient (H = 1 assumed for streptavidin-binding peptides). A500nm,min corresponds to the value measured in presence of 1 mM biotin and A500nm,max corresponds to absorbance values measured in absence of the peptide.
The Kd values for SAV_1_mod, SAV_1_cycl, and SAV_2_mod, SAV_1S_mod, and SAV_1S_cycl were obtained from their respective IC50 values using equation 2: […]

[1] = Head-to-side-chain cyclisation: Cys S-alkylation with bifunctional aldehyde linker 1-4 (benzyl bromide or bromoacetamide), then intramolecular reductive amination of the N-terminal amine with NaBH3CN (one pot, crude peptides); conditions: the molecule shown is the open-chain precursor, 100 mM MOPS pH 6.5 / about 20% MeCN, TCEP, 0.5 mM, 4.0 °C, 24.0 h, 2 steps, scale: 1 = smooth/efficient conversion to macrocycle as major UPLC-MS species, <1 = partial, mixture

streptavidin, sequence (P22629 25-183): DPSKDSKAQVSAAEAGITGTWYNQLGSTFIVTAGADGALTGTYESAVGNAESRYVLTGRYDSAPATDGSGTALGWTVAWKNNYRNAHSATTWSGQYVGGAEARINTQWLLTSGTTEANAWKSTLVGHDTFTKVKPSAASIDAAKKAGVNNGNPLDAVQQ

COc1ccc2cc1NC(=O)CSC[C@@H](C(=O)N[C@@H](C)C(N)=O)NC(=O)[C@H](Cc1ccccc1)NC(=O)[C@H](CC(=O)O)NC(=O)[C@H](CC(N)=O)NC(=O)[C@H]([C@@H](C)O)NC(=O)[C@H](Cc1c[nH]c3ccccc13)NC(=O)[C@H](Cc1c[nH]c3ccccc13)NC(=O)[C@H](C)NC2 [cyclic SAV_1S] (H-[X1]WWTNDFCA-NH2; linker 1-8 via X2)
Kd (streptavidin): 164 ± 78 nM

CC(C)[C@H](NC(=O)[C@H](C)N)C(=O)N[C@@H](CO)C(=O)N[C@@H](CO)C(=O)NCC(=O)NCC(=O)N[C@@H](CSCC(=O)Nc1ccc(C=O)cc1)C(=O)N[C@@H](Cc1c[nH]c2ccccc12)C(=O)N[C@@H](C)C(N)=O
ring closure, product found ([1]; 30-membered ring): 1

CC(C)[C@H](NC(=O)[C@H](C)N)C(=O)N[C@@H](CO)C(=O)N[C@@H](CO)C(=O)NCC(=O)NCC(=O)N[C@@H](CO)C(=O)NCC(=O)N[C@@H](CSCC(=O)Nc1ccc(C=O)cc1)C(=O)N[C@@H](Cc1c[nH]c2ccccc12)C(=O)N[C@@H](C)C(N)=O
ring closure, product found ([1]; 36-membered ring): 1

CC(C)[C@H](NC(=O)[C@H](C)N)C(=O)N[C@@H](CO)C(=O)N[C@@H](CO)C(=O)NCC(=O)NCC(=O)N[C@@H](CSCc1ccc(C=O)cc1)C(=O)N[C@@H](Cc1c[nH]c2ccccc12)C(=O)N[C@@H](C)C(N)=O [H-Ala-Val-Ser-Ser-Gly-Gly-Cys(CH2-C6H4-4-CHO)-Trp-Ala-NH2]
ring closure, product found ([1]; 28-membered ring): 1

COc1ccc(C=O)cc1NC(=O)CSC[C@H](NC(=O)CNC(=O)CNC(=O)[C@H](CO)NC(=O)[C@H](CO)NC(=O)[C@@H](NC(=O)[C@H](C)N)C(C)C)C(=O)N[C@@H](Cc1c[nH]c2ccccc12)C(=O)N[C@@H](C)C(N)=O
ring closure, product found ([1]; 29-membered ring): 1

COc1ccc(C=O)cc1NC(=O)CSC[C@H](NC(=O)CNC(=O)[C@H](CO)NC(=O)CNC(=O)CNC(=O)[C@H](CO)NC(=O)[C@H](CO)NC(=O)[C@@H](NC(=O)[C@H](C)N)C(C)C)C(=O)N[C@@H](Cc1c[nH]c2ccccc12)C(=O)N[C@@H](C)C(N)=O
ring closure, product found ([1]; 35-membered ring): 1

CC(C)[C@H](NC(=O)[C@H](C)N)C(=O)N[C@@H](CO)C(=O)N[C@@H](CO)C(=O)NCC(=O)NCC(=O)N[C@@H](CO)C(=O)NCC(=O)N[C@@H](CSCC(=O)Nc1ccc2cc(C=O)ccc2c1)C(=O)N[C@@H](Cc1c[nH]c2ccccc12)C(=O)N[C@@H](C)C(N)=O
ring closure, product found ([1]; 38-membered ring): 1

CC(=O)N[C@@H](CCCCN)C(=O)N[C@H](C(=O)N[C@@H](CO)C(=O)N[C@@H](CO)C(=O)NCC(=O)NCC(=O)N[C@@H](CSCC(=O)Nc1ccc2cc(C=O)ccc2c1)C(=O)N[C@@H](Cc1c[nH]c2ccccc12)C(=O)N[C@@H](C)C(N)=O)C(C)C
ring closure, product found ([1]; 36-membered ring): < 1

CC(C)[C@H](NC(=O)[C@H](C)N)C(=O)N[C@@H](CC(N)=O)C(=O)N[C@@H](CCC(=O)O)C(=O)N[C@@H](CCCCN)C(=O)N[C@@H](Cc1c[nH]cn1)C(=O)N[C@@H](Cc1ccc(O)cc1)C(=O)N[C@@H](CSCC(=O)Nc1ccc2cc(C=O)ccc2c1)C(=O)N[C@@H](Cc1c[nH]c2ccccc12)C(=O)N[C@@H](C)C(N)=O
ring closure, product found ([1]; 35-membered ring): 1

CC(=O)N[C@@H](CCCCN)C(=O)N[C@H](C(=O)N[C@@H](CO)C(=O)N[C@@H](CO)C(=O)NCC(=O)NCC(=O)N[C@@H](CSCC(=O)Nc1ccc(C=O)cc1)C(=O)N[C@@H](Cc1c[nH]c2ccccc12)C(=O)N[C@@H](C)C(N)=O)C(C)C
ring closure, product found ([1]; 34-membered ring): < 1

COc1ccc(C=O)cc1NC(=O)CSC[C@H](NC(=O)[C@H](Cc1ccc(O)cc1)NC(=O)[C@H](Cc1c[nH]cn1)NC(=O)[C@H](CCCCN)NC(=O)[C@H](CCC(=O)O)NC(=O)[C@H](CC(N)=O)NC(=O)[C@@H](NC(=O)[C@H](C)N)C(C)C)C(=O)N[C@@H](Cc1c[nH]c2ccccc12)C(=O)N[C@@H](C)C(N)=O
ring closure, product found ([1]; 32-membered ring): 1

CC(C)[C@H](NC(=O)[C@H](C)N)C(=O)N[C@@H](CC(N)=O)C(=O)N[C@@H](CCC(=O)O)C(=O)N[C@@H](CCCCN)C(=O)N[C@@H](Cc1c[nH]cn1)C(=O)N[C@@H](Cc1ccc(O)cc1)C(=O)N[C@@H](CSCC(=O)Nc1ccc(C=O)cc1)C(=O)N[C@@H](Cc1c[nH]c2ccccc12)C(=O)N[C@@H](C)C(N)=O
ring closure, product found ([1]; 33-membered ring): 1

COc1ccc(C=O)cc1NC(=O)CSC[C@H](NC(=O)CNC(=O)CNC(=O)[C@H](CO)NC(=O)[C@H](CO)NC(=O)[C@@H](NC(=O)[C@H](CCCCN)NC(C)=O)C(C)C)C(=O)N[C@@H](Cc1c[nH]c2ccccc12)C(=O)N[C@@H](C)C(N)=O
ring closure, product found ([1]; 33-membered ring): < 1

CC(C)[C@H](NC(=O)[C@H](C)N)C(=O)N[C@@H](CO)C(=O)N[C@@H](CO)C(=O)NCC(=O)NCC(=O)N[C@@H](CSCC(=O)Nc1ccc2cc(C=O)ccc2c1)C(=O)N[C@@H](Cc1c[nH]c2ccccc12)C(=O)N[C@@H](C)C(N)=O
ring closure, product found ([1]; 32-membered ring): 1

CC(C)[C@H](NC(=O)[C@H](C)N)C(=O)N[C@@H](CC(N)=O)C(=O)N[C@@H](CCC(=O)O)C(=O)N[C@@H](CCCCN)C(=O)N[C@@H](Cc1c[nH]cn1)C(=O)N[C@@H](Cc1ccc(O)cc1)C(=O)N[C@@H](CSCc1ccc(C=O)cc1)C(=O)N[C@@H](Cc1c[nH]c2ccccc12)C(=O)N[C@@H](C)C(N)=O
ring closure, product found ([1]; 31-membered ring): 1

CC(C)[C@H](NC(=O)[C@H](C)N)C(=O)N[C@@H](CO)C(=O)N[C@@H](CO)C(=O)NCC(=O)NCC(=O)N[C@@H](CO)C(=O)NCC(=O)N[C@@H](CSCc1ccc(C=O)cc1)C(=O)N[C@@H](Cc1c[nH]c2ccccc12)C(=O)N[C@@H](C)C(N)=O
ring closure, product found ([1]; 34-membered ring): 1

CC(C)[C@H](NC(=O)[C@@H](N)CCCCN)C(=O)N[C@@H](CO)C(=O)N[C@@H](CO)C(=O)NCC(=O)NCC(=O)N[C@@H](CSCC(=O)Nc1ccc2cc(C=O)ccc2c1)C(=O)N[C@@H](Cc1c[nH]c2ccccc12)C(=O)N[C@@H](C)C(N)=O
ring closure, product found ([1]; 32-membered ring): 1

CC(C)[C@H](NC(=O)[C@@H](N)CCCCN)C(=O)N[C@@H](CO)C(=O)N[C@@H](CO)C(=O)NCC(=O)NCC(=O)N[C@@H](CSCC(=O)Nc1ccc(C=O)cc1)C(=O)N[C@@H](Cc1c[nH]c2ccccc12)C(=O)N[C@@H](C)C(N)=O
ring closure, product found ([1]; 30-membered ring): 1

CC(C)[C@H](NC(=O)[C@@H](N)CCCCN)C(=O)N[C@@H](CO)C(=O)N[C@@H](CO)C(=O)NCC(=O)NCC(=O)N[C@@H](CSCc1ccc(C=O)cc1)C(=O)N[C@@H](Cc1c[nH]c2ccccc12)C(=O)N[C@@H](C)C(N)=O [H-Lys-Val-Ser-Ser-Gly-Gly-Cys(CH2-C6H4-4-CHO)-Trp-Ala-NH2]
ring closure, product found ([1]; 28-membered ring): 1

CC(=O)N[C@@H](CCCCN)C(=O)N[C@H](C(=O)N[C@@H](CO)C(=O)N[C@@H](CO)C(=O)NCC(=O)NCC(=O)N[C@@H](CSCc1ccc(C=O)cc1)C(=O)N[C@@H](Cc1c[nH]c2ccccc12)C(=O)N[C@@H](C)C(N)=O)C(C)C [Ac-Lys-Val-Ser-Ser-Gly-Gly-Cys(CH2-C6H4-4-CHO)-Trp-Ala-NH2]
ring closure, product found ([1]; 32-membered ring): < 1

COc1ccc(C=O)cc1NC(=O)CSC[C@H](NC(=O)CNC(=O)CNC(=O)[C@H](CO)NC(=O)[C@H](CO)NC(=O)[C@@H](NC(=O)[C@@H](N)CCCCN)C(C)C)C(=O)N[C@@H](Cc1c[nH]c2ccccc12)C(=O)N[C@@H](C)C(N)=O
ring closure, product found ([1]; 29-membered ring): 1
